{
  "source": "patent US11654102B2",
  "about": "“Cosmetic composition comprising vetiver root extract” (GIVAUDAN SA, priority 2018, dated 2023)",
  "experiment": "Solubility of zizanoic acid in water",
  "format": "physicochemical",
  "conditions": "in presence of the other substances present in the extract",
  "data": [
    {"smiles": "C=C1[C@H]2CC[C@H](C(=O)O)[C@@]23CC[C@H](C3)C1(C)C", "note": "[zizanoic acid]", "values": [
      {"measurement": "solubility of zizanoic acid in water", "value": "improved"}
    ]}
  ]
}
